Read-outs that look alike come from different tables or passages of the source.
Assays:
[1] = test system: primary human pan T-cells; test: Human IL-2 Assay for GCN2 Inhibition (IL-2 secretion from T cells in low amino acid condition); format: cell-based; conditions: IL-2 secretion from human T cells stimulated with anti-CD3/CD28 in low amino acid condition, ELISA, read-out: IL2/T-cell EC50
Description: Tumor microenvironment is profoundly immuno-suppressive. This may be attributed to the depletion of amino acids (like arginine and tryptophan) which triggers the activation of GCN2 in immune cells, including T cell and myeloid cells. In T cells, activation of GCN2 leads to reduce effector functions of CD8 T cells and induction and/or maintenance of immuno-suppressive T-regs. Inhibition of that immuno-suppressive response by GCN2 inhibitors enables an anti-cancer immune response by activating effector T-cells. Herein we describe an in-vitro system we established using human T-cells stimulated in low amino acid condition in order to engage the GCN2 biology. The method described involves the modulation of IL-2 levels secreted by human T cells in responses to the GCN2 inhibitors disclosed herein.
Amino acid-free RPMI was reconstituted with all but one of the amino acids found in standard RMPI (e.g. Arginine, Tryptophan), 10% charcoal-stripped fetal bovine serum, 100 Units/mL penicillin and 0.1 mg/mL streptomycin. Primary human pan T-cells were isolated using Pan T Cell Isolation Kit, human (MACS Miltenyi biotech Cat # Order no. 130-096-535) from apheresis cones and 5×104 pan T-cells per well. The purified T cells are seeded in Nunc™ 96-Well Polystyrene Round Bottom Microwell Plates (the cells are rested in No TRP media in a 15 ml falcon tube in the incubator for 30-45 minutes while titrations for tryptophan and the GCN2 inhibitor compound are made) A plate matrix was developed to titrate both a GCN2 inhibitor and the amino acid of interest ranging from “No Amino Acid” condition, up to the concentration found in the regular RPMI media (20 μM for TRP and 950 μM for Arginine). The cells were incubated for 30 min at 37° C. with the GCN2 inhibitor and then stimulated with 5×104 anti-CD3/CD28 Dynabeads® per well. After 96 hours of incubation the IL-2 level in the supernatant were measured using ELISA (R&D systems Cat # DY202 (Human IL-2 DuoSet ELISA). Data were plotted in GraphPad Prism software and EC50 is calculated.

[2] = biological target: GCN2 kinase (Homo sapiens (Human), UniProt Q9P2K8); test: GCN2 Enzyme Inhibition Assay (Transcreener ADP2 fluorescence polarization); format: biochemical; conditions: 280 μM ATP, 200 μM (RS)7 peptide, 4 nM GCN2, 25° C.
Chain of GCN2 kinase (Q9P2K8 whole entry): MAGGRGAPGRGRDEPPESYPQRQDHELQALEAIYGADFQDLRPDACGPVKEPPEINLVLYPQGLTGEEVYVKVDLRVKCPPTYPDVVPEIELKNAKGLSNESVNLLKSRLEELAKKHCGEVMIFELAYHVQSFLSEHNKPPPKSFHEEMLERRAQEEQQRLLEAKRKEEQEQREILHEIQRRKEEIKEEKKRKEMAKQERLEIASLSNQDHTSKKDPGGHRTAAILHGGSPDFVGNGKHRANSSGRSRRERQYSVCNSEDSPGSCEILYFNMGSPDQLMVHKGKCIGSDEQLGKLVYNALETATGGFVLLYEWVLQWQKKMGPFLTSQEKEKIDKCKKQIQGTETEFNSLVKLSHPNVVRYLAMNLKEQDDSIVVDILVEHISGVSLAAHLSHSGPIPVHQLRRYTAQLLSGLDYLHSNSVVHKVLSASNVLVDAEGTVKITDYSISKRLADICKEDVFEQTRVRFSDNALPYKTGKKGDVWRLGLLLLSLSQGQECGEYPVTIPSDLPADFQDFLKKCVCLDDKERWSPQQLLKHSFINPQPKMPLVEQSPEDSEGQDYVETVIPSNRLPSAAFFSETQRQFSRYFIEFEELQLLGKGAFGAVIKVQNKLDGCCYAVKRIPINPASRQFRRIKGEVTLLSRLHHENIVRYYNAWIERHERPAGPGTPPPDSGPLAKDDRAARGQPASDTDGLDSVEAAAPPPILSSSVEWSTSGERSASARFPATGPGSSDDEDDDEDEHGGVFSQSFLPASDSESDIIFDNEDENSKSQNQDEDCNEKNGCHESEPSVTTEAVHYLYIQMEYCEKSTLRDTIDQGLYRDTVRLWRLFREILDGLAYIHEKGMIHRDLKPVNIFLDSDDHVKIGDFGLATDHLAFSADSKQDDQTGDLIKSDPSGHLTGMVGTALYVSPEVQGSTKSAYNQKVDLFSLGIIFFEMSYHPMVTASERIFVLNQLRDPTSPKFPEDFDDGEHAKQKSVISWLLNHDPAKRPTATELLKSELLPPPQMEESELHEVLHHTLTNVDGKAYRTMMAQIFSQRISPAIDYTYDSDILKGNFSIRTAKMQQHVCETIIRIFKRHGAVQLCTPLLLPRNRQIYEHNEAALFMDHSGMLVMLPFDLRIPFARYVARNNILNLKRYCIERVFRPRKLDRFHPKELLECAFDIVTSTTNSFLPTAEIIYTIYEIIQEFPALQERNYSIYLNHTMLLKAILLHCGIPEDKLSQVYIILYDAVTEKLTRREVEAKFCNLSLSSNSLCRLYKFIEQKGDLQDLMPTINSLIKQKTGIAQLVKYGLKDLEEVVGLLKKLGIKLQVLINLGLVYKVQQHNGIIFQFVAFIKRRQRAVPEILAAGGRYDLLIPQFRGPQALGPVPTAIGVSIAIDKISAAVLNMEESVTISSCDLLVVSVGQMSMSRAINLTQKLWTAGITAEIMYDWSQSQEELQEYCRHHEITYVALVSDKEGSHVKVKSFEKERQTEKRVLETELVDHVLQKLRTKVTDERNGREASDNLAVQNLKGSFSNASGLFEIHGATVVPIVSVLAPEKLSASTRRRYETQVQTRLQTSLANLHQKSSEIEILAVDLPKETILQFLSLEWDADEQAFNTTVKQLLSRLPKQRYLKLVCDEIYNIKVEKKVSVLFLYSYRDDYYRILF
How it was run: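 Transcreener ADP2 fluorescence polarization detection of ADP from 4 nM GCN2 with (RS)7 substrate in 25 mM Tris-HCl pH 7.5, 50 mM NaCl, 10 mM MgCl2, 1 mM DTT. Compound pre-incubated with enzyme 10 min at 25 °C; reaction started by ATP, run 1 h at 25 °C. IC50 and Ki(app) by tight-binding fit.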

[3] = biological target: intracellular GCN2 (phosphorylation of the GCN2 substrate eIF2α) (Homo sapiens (Human), UniProt Q9P2K8); test: GCN2 Cellular Inhibition Assay (AlphaScreen SureFire P-eIF2α Ser51, borrelidin-treated U2OS cells); format: cell-based; conditions: 10 μM borrelidin, 1 h, phosphorylated eIF2α Ser51, read-out: GCN2 Biomarker (IC50)
Chain of intracellular GCN2 (phosphorylation of the GCN2 substrate eIF2α) (Q9P2K8 whole entry): as above
How it was run: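 U2OS cells adhered overnight, then given compound (top 40 μM, 4-fold serial dilutions) plus 10 μM borrelidin for 1 h at 37 °C. Lysates assayed for eIF2α phospho-Ser51 by AlphaScreen SureFire; % inhibition versus borrelidin-only wells.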

| Compound | EC50 ([1]; Homo sapiens, T-cell, 96 h) [nM] | IC50 [2] [nM] | IC50 [3] [nM] | EC50 ([1]; 96 hours) [nM] |
| --- | --- | --- | --- | --- |
| FC(F)(F)c1ccc2ncc(-c3nccc(N4CCN(CC5CCOCC5)C(c5cn[nH]c5)C4)n3)n2c1 (stereo not shown) [I-354, 3-(4-(3-(1H-pyrazol-4-yl)-4-((tetrahydro-2H-pyran-4-yl)methyl)piperazin-1-yl)pyrimidin-2-yl)-6-(trifluoromethyl)imidazo[1,2-a]pyridine] | 100 to 500 | < 10 | < 500 | – |
| C[C@H]1CN(c2nccc(-c3cnc4ccc(C(F)(F)F)cn34)n2)C[C@H](c2cn[nH]c2)O1 [I-134, (2S,6S)-2-methyl-6-(1H-pyrazol-4-yl)-4-(4-(6-(trifluoromethyl)imidazo[1,2-a]pyridin-3-yl)pyrimidin-2-yl)morpholine] | > 500 | 10 to 100 | < 500 | – |
| Cc1[nH]ncc1[C@@H]1CN(c2ccnc(-c3cnc4ccc(C(F)(F)F)cn34)n2)C[C@H](C)O1 [I-124, 3-{4-[(2S,6R)-2-Methyl-6-(3-methyl-1H-pyrazol-4-yl)-morpholin-4-yl]-pyrimidin-2-yl}-6-trifluoromethyl-imidazo[1,2-a]pyridine] | 100 to 500 | < 10 | < 500 | < 100 |
| C[C@H]1CN(c2nccc(-c3cnc4ccc(C(F)(F)F)cn34)n2)C[C@@H](c2cn[nH]c2)O1 [I-126, (2S,6R)-2-methyl-6-(1H-pyrazol-4-yl)-4-{4-[6-(trifluoromethyl)imidazo[1,2-a]pyridin-3-yl]pyrimidin-2-yl}morpholine] | 100 to 500 | < 10 | < 500 | – |
| C[C@H]1C[C@@H](C(N)=O)CN(c2ccnc(-c3cnc4ccc(C(F)(F)F)cn34)n2)C1 [I-148, (3R,5S)-5-methyl-1-(2-(6-(trifluoromethyl)imidazo[1,2-a]pyridin-3-yl)pyrimidin-4-yl)piperidine-3-carboxamide] | 100 to 500 | < 10 | < 500 | – |
| Cc1[nH]ncc1[C@@H]1CN(c2nccc(-c3cnc4ccc(Cl)cn34)n2)C[C@H](C)O1 [I-179, (2S,6R)-4-(4-(6-chloroimidazo[1,2-a]pyridin-3-yl)pyrimidin-2-yl)-2-methyl-6-(5-methyl-1H-pyrazol-4-yl)morpholine] | 100 to 500 | < 10 | < 500 | – |
| Cc1[nH]ncc1[C@@H]1CN(c2nccc(-c3cnc4ccc(C(F)(F)F)cn34)n2)C[C@H](C)O1 [I-116] | < 100 | – | 500 to 5000 | – |
| C[C@@H]1C[C@H](c2cn[nH]c2)CN(c2nccc(-c3cnc4ccc(C(F)(F)F)cn34)n2)C1 [I-136, 3-(2-((3R,5R)-3-Methyl-5-(1H-pyrazol-4-yl)piperidin-1-yl)pyrimidin-4-yl)-6-(trifluoromethyl)imidazo[1,2-a]pyridine] | < 100 | – | < 500 | 100 to 500 |
| C[C@H]1C[C@@H](c2cn[nH]c2)CN(c2nccc(-c3cnc4ccc(C(F)(F)F)cn34)n2)C1 [I-137, 3-(2-((3S,5S)-3-Methyl-5-(1H-pyrazol-4-yl)piperidin-1-yl)pyrimidin-4-yl)-6-(trifluoromethyl)imidazo[1,2-a]pyridine] | 100 to 500 | – | < 500 | – |
| Cc1n[nH]cc1C1CN(c2nccc(-c3cnc4ccc(Cl)cn34)n2)CC(C)O1 (stereo not shown) [I-160, 4-(4-(6-chloroimidazo[1,2-a]pyridin-3-yl)pyrimidin-2-yl)-2-methyl-6-(3-methyl-1H-pyrazol-4-yl)morpholine] | 100 to 500 | < 10 | – | – |
| C[C@@H]1CN(c2ccnc(-c3cnc4ccc(Cl)cn34)n2)C[C@H](c2cn[nH]c2)O1 [I-566, (2R,6S)-4-(2-(6-chloroimidazo[1,2-a]pyridin-3-yl)pyrimidin-4-yl)-2-methyl-6-(1H-pyrazol-4-yl)morpholine] | < 100 | – | – | – |
| C[C@H]1[C@H](c2cn[nH]c2)N(CC2(C)COC2)CCN1c1ccnc(-c2cnc3ccc(C(F)(F)F)cn23)n1 [I-482, 3-(4-((2 S,3 S)-2-methyl-4-((3-methyloxetan-3-yl)methyl)-3-(1H-pyrazol-4-yl)piperazin-1-yl)pyrimidin-2-yl)-6-(trifluoromethyl)imidazo[1,2-a]pyridine] | > 500 | 10 to 100 | – | – |
